Laboratory results published in patent EP1247803A2, “Indolinone compounds suitable for modulation of protein kinases” (Sugen, Inc., priority 1996, dated 1998).

Key:
FLK-1 receptor = target: T1, FLK-1 receptor (Mus musculus, UniProt P35918); assay: FLK-1 ELISA (kinase activity of the FLK-1 receptor in FLK-1/NIH3T3 cells, VEGF stimulated); type: cell-based
T1 construct: expressed in transfected cells; host or cells: NIH3T3 C7#3
Method in brief: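 FLK-1-expressing NIH3T3 C7#3 cells, starved overnight in 0.1% FBS medium, were treated with compounds at a 1:200 final dilution (0.5% DMSO) for 2 h at 37 °C, with VEGF stimulation. FLK-1 kinase activity was read by ELISA on anti-rabbit IgG plates using affinity-purified anti-FLK-1 antiserum.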

MET = MET biochemical kinase assay; set-up: species or system human; concentration or dose not given beside the values
Method in brief: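 Immunocaptured MET autophosphorylation, read colorimetrically (TMB) via HRP anti-phosphotyrosine antibody. Kinase reaction initiated with buffer containing ATP and divalent metals after compound addition to plate-bound receptor from lysates.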

T1 sequence (P35918 20-1345): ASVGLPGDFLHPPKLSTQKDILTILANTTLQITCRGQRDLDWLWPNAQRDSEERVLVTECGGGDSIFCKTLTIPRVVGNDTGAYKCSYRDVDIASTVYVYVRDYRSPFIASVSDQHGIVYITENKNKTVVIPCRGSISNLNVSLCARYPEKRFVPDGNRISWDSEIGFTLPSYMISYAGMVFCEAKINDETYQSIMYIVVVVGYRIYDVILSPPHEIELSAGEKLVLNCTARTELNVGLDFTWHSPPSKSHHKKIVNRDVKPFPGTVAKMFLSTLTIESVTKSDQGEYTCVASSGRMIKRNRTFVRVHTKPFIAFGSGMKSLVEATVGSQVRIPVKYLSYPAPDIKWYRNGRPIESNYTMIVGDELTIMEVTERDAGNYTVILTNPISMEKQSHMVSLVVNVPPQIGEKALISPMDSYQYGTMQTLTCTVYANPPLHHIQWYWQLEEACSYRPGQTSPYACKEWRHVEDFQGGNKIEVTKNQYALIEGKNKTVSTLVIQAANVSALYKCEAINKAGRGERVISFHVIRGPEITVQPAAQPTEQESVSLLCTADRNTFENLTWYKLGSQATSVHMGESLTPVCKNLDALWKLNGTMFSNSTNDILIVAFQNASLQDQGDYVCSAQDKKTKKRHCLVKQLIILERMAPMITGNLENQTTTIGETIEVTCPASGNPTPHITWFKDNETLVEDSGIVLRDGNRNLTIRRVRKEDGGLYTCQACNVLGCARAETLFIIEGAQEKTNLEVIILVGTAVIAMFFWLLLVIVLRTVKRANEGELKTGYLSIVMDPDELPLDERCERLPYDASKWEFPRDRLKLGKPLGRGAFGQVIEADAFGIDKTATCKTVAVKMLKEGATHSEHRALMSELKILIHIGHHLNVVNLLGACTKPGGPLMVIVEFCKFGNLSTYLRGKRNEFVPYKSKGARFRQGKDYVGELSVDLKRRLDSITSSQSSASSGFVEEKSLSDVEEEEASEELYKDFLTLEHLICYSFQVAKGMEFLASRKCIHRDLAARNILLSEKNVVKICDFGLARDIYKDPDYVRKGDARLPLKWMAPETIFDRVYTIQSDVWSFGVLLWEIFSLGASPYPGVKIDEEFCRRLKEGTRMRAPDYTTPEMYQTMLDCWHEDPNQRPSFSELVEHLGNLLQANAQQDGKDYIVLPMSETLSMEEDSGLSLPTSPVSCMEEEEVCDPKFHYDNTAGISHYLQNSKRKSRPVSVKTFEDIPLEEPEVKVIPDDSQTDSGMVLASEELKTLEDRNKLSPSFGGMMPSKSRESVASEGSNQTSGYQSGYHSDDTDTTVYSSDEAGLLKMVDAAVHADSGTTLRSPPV

Row | SMILES | Fik Kinase %Inhibition (FLK-1 receptor) | Met Kinase % Inhibition (MET)
1 | O=C1Nc2ccc(S(=O)(=O)Nc3ccc(C(F)(F)F)cc3)cc2C1=Cc1cc(Br)ccc1O [10733/E09] | 13.4% | 62.6%
2 | O=C1Nc2c(Br)cc(Br)cc2C1=Cc1ccc([N+](=O)[O-])cc1 [10734/A06] | -6.4% | 46.9%
3 | CCOC(=O)CCc1c(C(=O)OCC)[nH]c(C=C2C(=O)Nc3ccc(S(=O)(=O)Nc4ccc(C(F)(F)F)cc4)cc32)c1CC(=O)OCC [10718/E05] | 16.1% | 32.2%
4 | Cc1c(O)ccc(C=C2C(=O)Nc3ccc(S(=O)(=O)Nc4ccc(C(F)(F)F)cc4)cc32)c1O [10718/E09] | 0.9% | 80.8%
5 | O=C1Nc2ccc(S(=O)(=O)Nc3ccc(C(F)(F)F)cc3)cc2C1=Cc1cc(Cl)cc(Cl)c1O [10734/E03] | 26.9% | 99.3%
6 | Cc1c(Br)ccc2c1C(=Cc1ccc(C(C)(C)C)cc1)C(=O)N2 [10734/C10] | 10.1% | 11.6%
7 | O=C1Nc2ccc(S(=O)(=O)Nc3ccc(C(F)(F)F)cc3)cc2C1=Cc1cc([N+](=O)[O-])ccc1O [10733/E10] | 5.5% | 52.8%
8 | CC(C)(C)c1cc(C=C2C(=O)Nc3ccc(S(=O)(=O)N4CCOCC4)cc32)cc(C(C)(C)C)c1OCc1ccccc1 [10733/F05] | 26.2% | 65.1%
9 | O=C1Nc2ccc(I)cc2C1=Cc1cc(Cl)ccc1O [10734/B04] | 2.8% | 88.4%
10 | O=C1Nc2ccc(S(=O)(=O)Nc3ccc(C(F)(F)F)cc3)cc2C1=Cc1ccc2ccccc2c1O [10718/E04] | 15.1% | 87.7%
11 | O=C1Nc2ccc(CCCl)cc2C1=Cc1cc([N+](=O)[O-])ccc1O [10733/G10] | 12.7% | 41.9%
12 | O=C1Nc2ccc(I)cc2C1=Cc1ccc([N+](=O)[O-])cc1 [10734/B06] | -0.9% | 91.2%
13 | COc1cc(Br)cc(C=C2C(=O)Nc3ccc(S(=O)(=O)N4CCOCC4)cc32)c1O [10733/F08] | -13.2% | 66.6%
14 | Cc1cc(C=C2C(=O)Nc3ccc(S(=O)(=O)Nc4ccc(C(F)(F)F)cc4)cc32)cc(C)c1OCc1ccccc1 [10733/E07] | 13.2% | -10.1%
15 | CC(C)(C)c1ccc(C=C2C(=O)Nc3ccc(I)cc32)cc1 [10734/B10] | 15.7% | 82.6%
16 | Cc1c(Br)ccc2c1C(=Cc1cc(Br)cc(Br)c1O)C(=O)N2 [10734/C07] | -2.7% | 96.8%
17 | O=C1Nc2ccc(I)cc2C1=Cc1ccc(O)c(Br)c1 [10734/B09] | -32.3% | 94.3%
18 | CCN(CC)c1ccc(C=C2C(=O)Nc3ccc(S(=O)(=O)NC)cc32)c(O)c1 [10734/D05] | 2.4% | 55.0%
19 | O=C1Nc2ccc(S(=O)(=O)Nc3ccc(C(F)(F)F)cc3)cc2C1=Cc1ccc(Cl)c([N+](=O)[O-])c1 [10718/E08] | 9.2% | 69.6%
20 | Cc1c(Br)ccc2c1C(=Cc1cccc(F)c1O)C(=O)N2 [10734/C08] | -34.2% | 93.2%
21 | CC(C)(C)c1cc(C=C2C(=O)Nc3ccc(S(=O)(=O)Nc4ccc(C(F)(F)F)cc4)cc32)cc(C(C)(C)C)c1OCc1ccccc1 [10733/E05] | 10.6% | 2.9%
22 | COc1c(C)cc(C=C2C(=O)Nc3ccc(S(=O)(=O)N4CCOCC4)cc32)cc1C [10733/F06] | 19.3% | 20.9%
23 | O=C1Nc2c(Br)cc(Br)cc2C1=Cc1cc(Cl)cc(Cl)c1O [10734/A03] | 10.1% | 87.8%
